Laboratory results reported in ChEMBL document CHEMBL3352011, “Identification of novel 4-anilinoquinazoline derivatives as potent EGFR inhibitors both under normoxia and hypoxia” (Bioorg Med Chem, 2014).

Legend:
HT-29 [1] = assay: cells; assay type: functional, cell-based; conditions: Homo sapiens, HT-29, 72 h
Description: Antiproliferative activity against human HT-29 cells assessed as inhibition of cell proliferation under hypoxia conditions after 72 hrs by SRB assay

HT-29 [2] = assay: cells; assay type: functional, cell-based; conditions: Homo sapiens, HT-29, 72 h; remark: listed apart in the source
Description: Antiproliferative activity against human HT-29 cells assessed as inhibition of cell proliferation under normoxia conditions after 72 hrs by SRB assay

A549 [3] = assay: cells; assay type: functional, cell-based; conditions: Homo sapiens, A549, 72 h
Description: Antiproliferative activity against human A549 cells assessed as inhibition of cell proliferation under normoxia conditions after 72 hrs by SRB assay

A549 [4] = assay: cells; assay type: functional, cell-based; conditions: Homo sapiens, A549, 72 h; remark: listed apart in the source
Description: Antiproliferative activity against human A549 cells assessed as inhibition of cell proliferation under hypoxia conditions after 72 hrs by SRB assay

[5] = target: Epidermal growth factor receptor (Homo sapiens, UniProt P00533);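 note: Wild-type EGFR enzyme inhibition, measured with a Z'-Lyte kinase assay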
Description: Inhibition of wild type EGFR (unknown origin) by Z'-Lyte kinase assay

[6] = Drug metabolism in mouse liver microsomes at 5 uM in presence of NADPH incubated for 30 mins under normoxia conditions by HPLC method; assay type: ADME; conditions: read-out: Drug metabolism
[7] = Bioreductive drug activation in pH 7.4 PBS solution assessed as formation of hydroxylamino-imidazole at 4.2 umol incubated for 6 hrs in presence of cysteine and zinc dust by HPLC-Q-ToF-MS method
A549 [8] = assay: Induction of apoptosis in human A549 cells at 10 uM under hypoxia conditions after 72 hrs by annexin VFITC/propidium iodide staining based flow cytometry (reference value: 4.7%); assay type: functional
A549 [9] = assay: Induction of apoptosis in human A549 cells at 10 uM under normoxia conditions after 72 hrs by annexin VFITC/propidium iodide staining based flow cytometry (reference value: 3.94%); assay type: functional
[10] = Drug metabolism in mouse liver microsomes at 5 uM in presence of NADPH incubated for 30 mins under hypoxia conditions by HPLC method; assay type: ADME; conditions: read-out: Drug metabolism
[11] = Bioreductive drug activation in pH 7.4 PBS solution assessed as formation of imidazole radical at 4.2 umol incubated for 6 hrs in presence of cysteine and zinc dust by HPLC-Q-ToF-MS method

Sequence of Epidermal growth factor receptor (P00533 whole entry): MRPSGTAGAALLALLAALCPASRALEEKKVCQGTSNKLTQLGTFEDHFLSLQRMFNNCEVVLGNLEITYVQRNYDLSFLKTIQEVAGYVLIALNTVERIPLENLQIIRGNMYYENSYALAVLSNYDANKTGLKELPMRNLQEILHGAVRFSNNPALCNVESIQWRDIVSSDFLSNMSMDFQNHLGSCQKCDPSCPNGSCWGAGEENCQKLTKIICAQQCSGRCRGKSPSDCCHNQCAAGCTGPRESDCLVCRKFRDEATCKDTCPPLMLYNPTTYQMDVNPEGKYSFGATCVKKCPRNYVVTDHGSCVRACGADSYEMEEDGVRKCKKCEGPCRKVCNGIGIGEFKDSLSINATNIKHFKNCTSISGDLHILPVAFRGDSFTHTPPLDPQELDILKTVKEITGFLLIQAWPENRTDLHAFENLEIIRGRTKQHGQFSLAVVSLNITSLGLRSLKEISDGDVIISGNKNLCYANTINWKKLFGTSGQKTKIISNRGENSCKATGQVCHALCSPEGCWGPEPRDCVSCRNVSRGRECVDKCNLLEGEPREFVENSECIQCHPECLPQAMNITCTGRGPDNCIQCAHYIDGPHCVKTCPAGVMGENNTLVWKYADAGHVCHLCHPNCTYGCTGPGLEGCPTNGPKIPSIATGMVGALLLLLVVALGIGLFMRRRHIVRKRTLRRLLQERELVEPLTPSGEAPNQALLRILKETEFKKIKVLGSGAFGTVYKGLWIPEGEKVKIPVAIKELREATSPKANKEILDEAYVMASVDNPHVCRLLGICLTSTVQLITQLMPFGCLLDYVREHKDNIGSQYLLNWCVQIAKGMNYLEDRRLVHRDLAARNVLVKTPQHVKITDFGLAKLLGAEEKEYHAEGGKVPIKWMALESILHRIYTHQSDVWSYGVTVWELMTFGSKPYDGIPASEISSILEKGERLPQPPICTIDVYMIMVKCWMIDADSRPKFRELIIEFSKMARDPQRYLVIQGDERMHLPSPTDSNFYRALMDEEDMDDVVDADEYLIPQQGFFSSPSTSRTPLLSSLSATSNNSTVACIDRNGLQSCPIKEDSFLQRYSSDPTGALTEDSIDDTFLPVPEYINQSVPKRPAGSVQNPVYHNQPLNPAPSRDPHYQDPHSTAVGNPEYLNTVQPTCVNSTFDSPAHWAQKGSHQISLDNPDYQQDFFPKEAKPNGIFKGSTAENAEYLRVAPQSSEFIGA

SMILES | IC50 (HT-29 [1]) [µM] | IC50 (HT-29 [2]) [µM] | IC50 (A549 [3]) [µM] | IC50 (A549 [4]) [µM] | IC50 [5] [µM] | metabolised at 0.5 h, 5 µM [6] [%] | metabolised at 0.5 h, 5 µM [10] [%] | Drug metabolism [7] | Activity (A549 [8]) [%] | Activity (A549 [9]) [%] | Drug metabolism [11]
COc1cc2c(Nc3ccc(OCc4cccc(F)c4)c(Cl)c3)ncnc2cc1OCCCCCn1ccnc1[N+](=O)[O-] | 5.04 | 14.1 | 19.9 | 14.4 | 0.0166 | – | – | – | – | – | –
COc1cc2c(Nc3cccc(Br)c3)ncnc2cc1OCCCCCCn1ccnc1[N+](=O)[O-] | 4.3 | 10.5 | 30.2 | 20.2 | 0.00078 | – | – | – | – | – | –
COc1cc2c(Nc3cccc(Br)c3)ncnc2cc1OCCCn1ccnc1[N+](=O)[O-] | 2.82 | 10.9 | 13.5 | 7.83 | 0.00049 | – | – | – | – | – | –
Nc1n[n+]([O-])c2ccccc2[n+]1[O-] [TIRAPAZAMINE] | – | > 50 | > 50 | 6.9 | – | – | – | – | – | – | –
COc1cc2c(Nc3ccc(OCc4cccc(F)c4)c(Cl)c3)ncnc2cc1OCCCn1ccnc1[N+](=O)[O-] | 0.94 | 3.79 | 3.97 | 1.52 | 0.0305 | – | – | – | – | – | –
C#Cc1cccc(Nc2ncnc3cc(OCCCCn4ccnc4[N+](=O)[O-])c(OC)cc23)c1 | 0.59 | 2.52 | 2.21 | 1.08 | 0.00026 | – | – | – | – | – | –
COc1cc2c(Nc3ccc(F)c(Cl)c3)ncnc2cc1OCCOCCn1ccnc1[N+](=O)[O-] | 5.52 | 9.86 | 12.9 | 7.64 | 0.00032 | – | – | – | – | – | –
COc1cc2c(Nc3cccc(Br)c3)ncnc2cc1OCCCCCn1ccnc1[N+](=O)[O-] | 2.54 | 5.05 | 8.78 | 8.42 | 0.00033 | – | – | – | – | – | –
COc1cc2c(Nc3ccc(OCc4cccc(F)c4)c(Cl)c3)ncnc2cc1OCCOCCn1ccnc1[N+](=O)[O-] | 2.59 | 7.64 | 5.06 | 6.23 | 0.0201 | – | – | – | – | – | –
C#Cc1cccc(Nc2ncnc3cc(OCCOCCn4ccnc4[N+](=O)[O-])c(OC)cc23)c1 | 6.04 | 8.77 | 9.77 | 6.43 | 0.00054 | – | – | – | – | – | –
COc1cc2c(Nc3cccc(Br)c3)ncnc2cc1OCCCCn1ccnc1[N+](=O)[O-] | 1.43 | 4.02 | 3.09 | 1.97 | 0.00037 | – | – | – | – | – | –
COc1cc2c(Nc3cccc(Br)c3)ncnc2cc1OCCOCCn1ccnc1[N+](=O)[O-] | 3.44 | 10.8 | 13 | 10.1 | 0.00082 | – | – | – | – | – | –

Continued, in another order:

IC50 (HT-29 [1]) [µM] | IC50 (HT-29 [2]) [µM] | IC50 (A549 [3]) [µM] | IC50 (A549 [4]) [µM] | IC50 [5] [µM] | metabolised at 0.5 h, 5 µM [6] [%] | metabolised at 0.5 h, 5 µM [10] [%] | SMILES | Drug metabolism [7] | Activity (A549 [8]) [%] | Activity (A549 [9]) [%] | Drug metabolism [11]
2.27 | 4.49 | 10.5 | 8.69 | – | – | – | COc1cc2c(Nc3ccc(OCc4cccc(F)c4)c(Cl)c3)ncnc2cc1OCCCCn1ccnc1[N+](=O)[O-] | – | – | – | –
2.06 | 6.14 | 5.91 | 4.31 | 0.00077 | – | – | COc1cc2c(Nc3ccc(F)c(Cl)c3)ncnc2cc1OCCCn1ccnc1[N+](=O)[O-] | – | – | – | –
0.67 | 1.54 | 2.67 | 1.41 | 0.00031 | – | – | COc1cc2c(Nc3ccc(F)c(Cl)c3)ncnc2cc1OCCCCn1ccnc1[N+](=O)[O-] | – | – | – | –
1.03 | 4.08 | 4.26 | 1.74 | – | – | – | COc1cc2c(Nc3ccc(F)c(Cl)c3)ncnc2cc1OCCCCCn1ccnc1[N+](=O)[O-] | – | – | – | –
1.84 | 5.63 | 13.4 | 6.52 | 0.00144 | – | – | COc1cc2c(Nc3ccc(F)c(Cl)c3)ncnc2cc1OCCCCCCn1ccnc1[N+](=O)[O-] | – | – | – | –
> 50 | > 50 | > 50 | > 50 | 0.0355 | – | – | COc1cc2c(Nc3ccc(OCc4cccc(F)c4)c(Cl)c3)ncnc2cc1OCCCCCCn1ccnc1[N+](=O)[O-] | – | – | – | –
1.37 | 4.5 | 10.3 | 2.7 | 0.00057 | – | – | C#Cc1cccc(Nc2ncnc3cc(OCCCCCCn4ccnc4[N+](=O)[O-])c(OC)cc23)c1 | – | – | – | –
0.28 | 1.31 | 0.77 | 0.18 | 0.00047 | < 10 | > 80 | C#Cc1cccc(Nc2ncnc3cc(OCCCCCn4ccnc4[N+](=O)[O-])c(OC)cc23)c1 | Metabolite detected | 26.15 | 12.46 | Metabolite detected
– | 3.17 | 2.31 | 1.17 | – | – | – | C#Cc1cccc(Nc2ncnc3cc(OCCCn4ccnc4[N+](=O)[O-])c(OC)cc23)c1 | – | – | – | –
